System: p42/p44 MAPK
Assay: MAPK assay (DEAE-Sephacel, EGFR662-681 peptide) in L929 cells
Format: cell-based, murine
Experimental: In panel A cells were treated for 10 minutes with the indicated concentration of TNFα. JNK activation was measured using a solid phase kinase assay resulting in phosphorylation of GST-Jun. In […] the time course of MAPK activation is shown. MAPK was isolated from cell lysates on DEAE sephacel columns and MAPK activation was measured by phosphorylation of the EGFR peptide substrate. Panel C depicts the concentration curve of MAPK activation by TNFα. Cells were treated with the indicated concentration of TNFα and MAPK was assayed.
FIG. 26 depicts the activation of MAPK by bFGF in L929 cells. Serum starved L929 cells were stimulated for 10 min with the indicated concentration of bFGF.
Cell lines and culture. L929 cells (ATCC CCL1 were maintained in Dulbecco's modified Eagle's medium with 5% newborn calf serum and 5% bovine calf serum (BCS) supplemented with 100 ug/ml streptomycin and 100 U/ml penicillin. The cells were grown in 10 cm dishes at 37° C. in 7.5% CO2. Cells were made quiescent where indicated by incubation in Dulbecco's modified Eagle's medium and 0.1% bovine serum albumin for 24 h. Recombinant murine TNFα and recombinant human bFGF (147aa) were from R&D Systems, Minneapolis, Minn. Cells were pretreated where indicated with the MEK-1 inhibitor PD#098059 (Parke-Davis Pharmaceutical Corp. Ann Arbor, Mich.) for 1 h at 37° C. Cells were stimulated by incubation with the indicated cytokine or growth factor for various times at 37° C. Stimulation was stopped by rinsing the plates twice with ice cold phosphate buffered saline (PBS) and lysing the cells in the appropriate lysis buffer. Cells were scraped from the plates and nuclei were pelleted for 10 min at 14,000 RPM in a microcentrifuge. JNK assay. JNK activity was measured using a solid state kinase assay in which glutathione S-transferase-c-Jun (1-79) (GST-JUN) cound to glutathione-Sepharose 4B beads was used to affinity purify JNK and then JNK activity was measured in an in vitro kinase assay using the sepharose bound GST-Jun as a substrate (Hibi, M., et al. (1993) Genes & Development 7:2135-2148). Stimulated or unstimulated cells were lysed in 0.5% Nonidet P-40, 20 mM HEPES pH 7.2, 100 mM NaCl, 2 mM dithiothreitol, 1 mM EDTA, 1.0 mM phenylmethylsulfonylfluoride, 1 μg/ml aprotinin and the nuclei pelleted. Lysates were normalized for protein content. JNK was affinity purified from 50-100 μg of cell lysate by the addition of 10 ul of GST-Jun sepharose slurry (2 μg GST-Jun). Binding to GST-Jun efficiently isolates the two major forms of JNK (p45 and p55) and under the conditions used JNK isolation was linear for 10-250 μg of cell lysate. The lysates were rotated at 4° C. for 1-3 h. Beads were washed twice in lysis buffer and then twice in PAN (10 mM PIPES, pH 7.0, 100 mM NaCl, 21 μg/ml aprotinin). Kinase reactions were carried out at 30° C. for 15 min in 20 mM Hepes pH 7.2, 20 mM β-glycerophosphate, 10 mM p-nitrophenyl phosphate, 10 mM MgCl2, 1 mM dithiothreitol, 50 μm sodium vanadate, 10 μCi γ^32P-ATP 4300 Ci/mmole. The kinase reaction was linear from 0-30 min. MAPK Assay MAPK activity was measured exactly as described previously (Gardner, A. M., et al. (1994) Meth. Enzymol. 238:258-270) with the exception that MonoQ FPLC fractionation was replaced by step elution from a DEAE-Sephacel column using 0.5 M NaCl in loading buffer. The eluate was assayed in triplicate using the epidermal growth factor receptor 662-681 peptide (EGFR662-681) as a selective substrate for MAPK activity (Heasley, L. E., et al. (1994) American Journal of Physiology (Renal Fluid Electrolyte Physiol. 36) 267:F366-F373). […] Cells were lysed by scraping in ice cold RIPA buffer (50 mM Tris-HCl, pH 7.2, 150 mM NaCl, 0.1% SDS, 0.5% sodium deoxycholate, 1.0% Triton X-100, 10 mM sodium pyrophosphate, 25 mM β-glycerophosphate, 2 mM sodium vanadate, 2.1 μg/ml aprotinin) and the nuclei were pelletted. […]

Substance: TNFα
- MAPK activity stimulated above basal (1 ng/ml TNFα): 20%
- effect on MAPK activity (1 ng/ml TNFα, FIG. 27 panel B): only modest stimulatory effects on MAPK activity
- concentration required to stimulate p42/p44 MAPK 2-3 fold (L929 cells): Greater than 10 ng/ml
- effect on bFGF stimulation of MAPK activity (L929 cells): had little or no effect on bFGF stimulation of MAPK activity
- time to maximal stimulation of p42/p44 MAPK activity (L929 cells): 5 to 10 min

Substance: bFGF: recombinant human bFGF (147aa), basic fibroblast growth factor
- concentrations giving maximal stimulation of MAPK activity (serum starved L929 cells, 10 min): 0.25 to 0.5 ng/mL

— patent US20080201790A1, “Method and product for regulating cell responsiveness to external signals” (priority 1993, published 2008)
